This note sets out measurements from ChEMBL document CHEMBL3272289, “Amino acids. 1. alpha-Hydroxymethylphenylalanines” (1976).

For experiment [1], the system named is Rattus norvegicus. Put plainly: Hypotensive effect in conscious spontaneously hypertensive rat assessed as reduction in blood pressure at 100 to 300 mg/kg, po. It is filed as functional, organism-based.
For experiment [2], the system named is Rattus norvegicus. Put plainly: Hypotensive effect in conscious spontaneously hypertensive rat assessed as reduction in blood pressure at 100 mg/kg, po administered as single dose. It is filed as functional.
Experiment [3] concerns Rattus norvegicus. Put plainly: Hypotensive effect in conscious spontaneously hypertensive rat assessed as reduction in blood pressure at 50 mg/kg, po administered as single dose. The format is functional.

Calls of active or inactive are those of the source. The calls are words filed in the database; no cut-off is given here.

Regarding `NC(CO)(Cc1ccc(O)c(O)c1)C(=O)O` (centres undefined), the outcome with Rattus norvegicus [1] was inactive.
`NC(CO)(Cc1ccc(O)cc1)C(=O)O` (centres undefined): the result in the experiment on Rattus norvegicus [1] was inactive.
On to `C[C@](N)(Cc1ccc(O)c(O)c1)C(=O)O` [METHYLDOPA], for which the Activity in the experiment on Rattus norvegicus [2] came to 85 mmHg; with Rattus norvegicus [3], 44 mmHg.
